Measured values published in patent US20120202287A1, “Stem Cell Culture Methods” (priority 2009, published 2012).
“Also recorded” adds a separate entry of the source.

Assays:
Assay type in all cases: cell-based, human
[1] = tested on: hESCs (SA121); assay: Feeder-free culture of hESCs without exogenous FGF, supplemented with EHNA
Method: Cells were grown on fibronectin coated dishes. A fibronectin (Calbiochem) solution (0.1 mg/ml) (diluted in PBS) is used to coat the tissue culture dishes for 15 mins at 37 C.
The fully supportive media used to culture the stem cells was a 1:1 mixture of defined media (see below) and conditioned vitrohES. vitrohES media was conditioned for 24 hours on a layer of mitotically inactivated mouse embryonic fibroblasts plated at 4×10^5 cells/ml of conditioned media. Passaging was performed first by removing the media from the cells and washing with PBS. Trypsin (sourced from Invitrogen) was added to the cells and incubated for 1-2 mins at room temperature. Fresh media was added to neutralize the cells and then gently scraped off using a cell scraper and passaged 1 in 4 to fibronectin coated dishes.
After washing with PBS, cells were fixed in 4% paraformaldehyde (Sigma) for 10 mins at room temperature and washed again. Cells were then permeabilised in ethanol for 2 minutes. Blocking was performed in 10% Goat serum (sigma)/PBS (Invitrogen) for one hour at room temperature. The following primary antibodies (dilutions in brackets) were then incubated for 1 hour at room temperature diluted in blocking solution: mouse anti-POU5F1 (Santa cruz) (1:250), rabbit anti-PAX6 (Chemicon) (1:1000), mouse anti B-tubulin III (Sigma) (1:1000), mouse anti-Alpha-feta-protein (AFP) (Sigma) (1:400), mouse anti-muscle-specific actin (SMA) (Dako) (1:50), SSEA1 (Hybdridoma bank University of IOWA) (1:5), SSEA3 (Hybdridoma bank University of IOWA) (1:5), SSEA4 (Hybdridoma bank. University of IOWA) (1:5), Tra1-60 (Santa cruz) (1:200) and Tra1-80 (Santa Cruz) (1:200). […] All immunofluorescence was visualised and captures using Zeiss Axiovision image analysis system (http://www.ziess.com).
(§1) hESCs (SA121) were placed into standard feeder free conditions without exogenous FGF (including conditioned media made without addition of exogenous FGF) but supplemented with 10 μM EHNA. Cells were initially seeded from a trypsin passage of a standard, FGF containing, feeder free culture (passage 33 post feeder free; p100 total).
Controls were also set up without FGF or EHNA. Three lines were set up to grow independently for each condition and these were routinely passaged using trypsin as normal. Passaging was usually a 1 in 4 split approximately every 4 days.
as §1, with “A further culture of SA121 was transferred to” for “hESCs (SA121) were placed into”, “7” for “33”, “p 48” for “p100”

[2] = tested on: hESC line SA461; assay: hESC line transferred directly from MEF feeders to feeder-free culture without FGF, supplemented with EHNA; conditions: passage 7, 10 uM EHNA, no exogenous FGF
Method: A culture of the hESC line SA461 was transferred from a supportive MEF feeder layer directly, using manual dissection, to standard feeder free conditions in the absence of exogenous FGF but supplemented with 10 uM EHNA. A control was also grown with neither FGF nor EHNA present. Cells were subsequently passaged by the standard trypsin feeder free technique. It was determined by passage 7 that the EHNA containing cultures were almost 100% positive for POU5F1 whereas positive staining in the cultures absent for FGF and EHNA was minimal (FIG. 8).

[3] = tested on: SA121 hESCs; assay: General (monolayer) differentiation on matrigel in defined media, qRT-PCR of stem cell and differentiation markers after 14 days; design: key to Full EHNA effect: those which maintained at least 50% of the level of NANOG-expression in comparison to EHNA and those that inhibited the expression of PAX6 to 50% or less than the value untreated controls were considered to have an EHNA-like effect; conditions: 14 days, qRT-PCR
Method: In order to ascertain the efficacy of the compounds of the present invention, each compound was tested to determine whether it can maintain the stem cell marker NANOG and/or block the differentiation marker PAX6 in the face of differentiating conditions in a manner similar to EHNA. Cells enzymatically passaged onto matrigel-coated dishes and grown for 2 weeks in defined media with or without (control) compound addition were analysed by qRT-PCR to determine the level of NANOG and PAX6 expression.
For general differentiation experiments cells were passaged with trypsin onto matrigel coated twelve-well dishes in the fully supportive media (see above). The media was then changed to defined media 24 h later and any experimental component was first added at this point. The media and experimental supplement were changed daily.
Cells were routinely harvested for qRT-PCR analysis 14 days after the first addition of the experimental compound.
Total RNA was extracted using QIAGEN RNeasy kits (Qiagen Inc, Valencia, Calif., http://www.qiagen.com) and DNaseI treatment was performed using Turbo DNA-Free (Ambion). The absence of genomic DNA was confirmed by quantitative PCR (qPCR) (see below) using glyceraldehyde-3-phosphate dehydrogenase (GAPDH) Taqman primers and probe (MWG). cDNA was synthesized with 2 μg total RNA in 20 μl using Superscript II according to manufacturers' instructions ((Carlsbad, Calif., http://www.Invitrogen.com)). For qPCR, cDNAs were diluted 1 in 60 and 5 μl used per sample in a 15 μl total reaction volume. Platinum pPCR supermix UDG with Rox (Carlsbad, Calif., http://www.Invitrogen.com) was used according to the manufacturer's instructions using an Applied Biosystems 7300 real time PCR system (Applied Biosystems, Warrington, UK, http://europe.appliedbiosystems.com). Each reaction contained 0.6 μM of each primer and Taqman probe (MWG). Biological and technical replicates were each performed in triplicate for each sample, standardised to the GAPDH housekeeping gene and relative expression values were calculated using the 7300 system SDS software (Applied Biosystems, Warrington, UK, http://europe.appliedbiosystems.com).
Cells were enzymatically passaged onto matrigel-coated dishes and grown for 2 weeks in defined media. After 14 days, qRT-PCR was utilised to analyse the expression of a variety of markers of pluripotency and differentiation. In the graphs in FIG. 9 the value 1 was set to the expression level of the gene in undifferentiated SA121 hESCs.
Cells were enzymatically passaged onto matrigel-coated dishes and grown for 2 weeks in defined media (1× confluent T25 tissue culture flask was passaged to 2×12 well dishes) with or without (control) compound addition. All compounds were added at 10 uM and each was performed in triplicate. Media and compounds were changed every 48 hours. After 14 days RNA was isolated and qRT-PCR was utilised to analyse the expression of NANOG and PAX6. The results are illustrated in FIGS. 13 to 17.
In the graphs in FIGS. 13, 14 15, 16 and 17 the value 1 was set relative to the expression level of the gene in the control (no compound) samples. […] This experiment allowed the effect of the EHNA-related compounds to be measured directly in comparison to EHNA. […] Those which had on effect, to these levels, on either PAX6 or NANOG were considered to have a partial-EHNA effect.

[4] = tested on: hESCs; assay: Directed monolayer neuronal differentiation with and without EHNA
Method: […] RNA samples were taken at various time intervals and a variety of marker gene expression was measured using qRT-PCR.
In FIGS. 11a-d, the value of 1 was set to the level of expression in undifferentiated hES cells. In FIG. 12a, the value of 1 was set to the expression level in the untreated control samples.

[5] = 10 passages, immunofluorescence

CCCCCC[C@@H]([C@@H](C)O)n1cnc2c(N)ncnc21.Cl [EHNA, erythro-9-(2-Hydroxy-3-nonyl)adenine, HCl]
maintenance of hESCs in an undifferentiated state in the absence of FGF ([1]; 10 μM EHNA, feeder free, no exogenous FGF): can be maintained in an undifferentiated state in the absence of FGF if EHNA is present
differentiation marker SSEA1 [1, 5]: negative
stem-cell markers SSEA3, SSEA4, TRA-160, TRA-180 and OCT4 [1, 5]: positive
expression of the stem cell markers NANOG and POU5F1 in the absence of FGF ([1]; FIG. 3): maintained
ability to differentiate to all three germ layers ([1]; after at least 22 passages without FGF with EHNA): can differentiate to all three germ layers
karyotype ([1]; passage 21, at least one replicate line): karyotypically normal
POU5F1 staining ([1]; passage 21, immunofluorescence): all positive for POU5F1
hESC gene expression (TLDA) ([1]; passage 30, compared with hESCs grown with FGF without EHNA): appropriate hESC gene expression
cells positive for POU5F1 [2]: ~100%
Full EHNA effect ([3]; 10 uM, NANOG at least 50% of EHNA level and PAX6 50% or less of untreated control): X
SOX2 transcription in differentiating conditions ([3]; FIG. 9a): maintained transcription at the same level as seen in undifferentiated hESCs and the untreated samples
stem cell marker expression (NANOG, ZFP42, POU5F1) in differentiating conditions ([3]; FIG. 9a): distinctly inhibited the down-regulation of the stem cell markers NANOG, ZFP42 and POU5F1
induction of other differentiation markers (AFP, CD34, Brachyury, PECAM1, CDX2 and FOXA2) ([3]; data not shown): No induction of these markers
NANOG expression in differentiating conditions ([3]; relative to untreated control): clearly maintains a higher level of NANOG than the untreated control
PAX6 expression in differentiating conditions ([3]; HCl): inhibited the rise of PAX6 expression levels; also recorded: inhibits the onset of the differentiation marker PAX6
cells staining positive for POU5F1 versus untreated differentiation ([4]; 4 weeks (28 days) of neuronal differentiation): At least 10 times
PAX6 levels relative to the control differentiation ([4]; 4 weeks of differentiation (passage at 2 weeks)): > 50%
levels of the stem cells markers NANOG and ZFP42 ([4]; 4 weeks of differentiation, versus control): considerably higher levels
effect on PAX6 / neuronal marker expression ([4]; early neuronal differentiation, qRT-PCR, HCl): delays the onset and reduces the amount of neuronal marker expression; also recorded: delay or reduce the level of expression
expression levels of the stem cell genes POU5F1, NANOG and ZFP42 ([4]; first 2 weeks of neuronal differentiation, qRT-PCR): maintained largely at undifferentiated levels
